Measured values taken from patent publication US5998362A, “Conjugates useful in the treatment of prostate cancer” (priority 1997, dated 1999).
Where a SMILES comes first, the peptide text is derived from it. [ ]: non-standard residue; d: D form. The star is where a group is joined. Doxorubicin(3'-N) = COc1cccc2c1C(=O)c1c(O)c3c(c(O)c1C2=O)C[C@@](O)(C(=O)CO)C[C@@H]3O[C@H]1C[C@H](N*)[C@H](O)[C@H](C)O1; Decanoyl(3,6,9-trioxa) = COCCOCCOCC(=O)*; hArg = N=C(N)NCCCC[C@H](N)C(=O)O; Chg = N[C@H](C(=O)O)C1CCCCC1

What was measured:
free PSA = free PSA (Homo sapiens, UniProt P07288); assay: Recognition of oligopeptide-doxorubicin conjugates by free PSA (time to 50% cleavage, HPLC); type: biochemical; parameters: required for 50% cleavage of the noted oligopeptides with enzymatically active free PSA; conditions: Table 3, DOX conjugates
Chain of free PSA (P07288 25-261): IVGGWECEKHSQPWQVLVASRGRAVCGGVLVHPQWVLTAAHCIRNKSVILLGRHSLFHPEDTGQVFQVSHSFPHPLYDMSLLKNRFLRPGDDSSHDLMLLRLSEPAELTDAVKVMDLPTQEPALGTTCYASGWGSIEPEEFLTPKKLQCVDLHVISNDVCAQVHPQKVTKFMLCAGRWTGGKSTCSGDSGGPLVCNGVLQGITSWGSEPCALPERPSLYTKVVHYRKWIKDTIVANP
Description: If no salt is indicated for the conjugate, the free conjugate was tested.

[1] = tested on: LNCap prostate tumor cells; assay: In vitro cytotoxicity of peptidyl derivatives of doxorubicin, Alamar Blue assay, LNCaP; type: cell-based
Description: (§1) The cytotoxicities of the cleaveable oligopeptide-doxorubicin conjugates, prepared as described in Examples 3-6, against a line of cells which is known to be killed by unmodified doxorubicin was assessed with an Alamar Blue assay. Specifically, cell cultures of LNCap prostate tumor cells or DuPRO cells in 96 well plates was diluted with medium containing various concentrations of a given conjugate (final plate well volume of 200 μl). The cells were incubated for 3 days at 37° C., 20 μl of Alamar Blue is added to the assay well. The cells were further incubated and the assay plates were read on a EL-310 ELISA reader at the dual wavelengths of 570 and 600 nm at 4 and 7 hours after addition of Alamar Blue. Relative percentage viability at the various concentration of conjugate tested was then calculated versus control (no conjugate) cultures. If no salt is indicated, the free conjugate was tested.

DuPRO cells = assay: In vitro cytotoxicity of peptidyl derivatives of doxorubicin, Alamar Blue assay, DuPRO; type: cell-based; conditions: 3 days incubation, read-out: DuPRO cell kill EC 50 (μM), value in parentheses
Description: as §1

Q: How did the “Substrate cleavage by York PSA at 3 HOUR” value (free PSA; 3 hours) turn out when `COCCOCCOCC(=O)N[C@@H](CO)C(=O)N[C@@H](CO)C(=O)N[C@@H](CO)C(=O)N[C@H](C(=O)N[C@@H](CCC(N)=O)C(=O)N[C@@H](CO)C(=O)N[C@H](CC(C)C)C(=O)N[C@H]1C[C@H](O[C@H]2C[C@](O)(C(=O)CO)Cc3c(O)c4c(c(O)c32)C(=O)c2c(OC)cccc2C4=O)O[C@@H](C)[C@H]1O)C1CCCCC1` [PEG(2)-SSSChgQ-S(dL)-DOX(3'), PEG(2)-SerSerSerChgGln-Ser(dLeu)-DOX (3')] was run?
A: 46%

Q: `COCCOCCOCC(=O)N[C@@H](CCCCNC(=N)N)C(=O)N[C@H](C(=O)N[C@@H](CCC(N)=O)C(=O)N[C@@H](CO)C(=O)N[C@@H](CC(C)C)C(=O)N[C@H]1C[C@H](O[C@H]2C[C@](O)(C(=O)CO)Cc3c(O)c4c(c(O)c32)C(=O)c2c(OC)cccc2C4=O)O[C@@H](C)[C@H]1O)C1CCCCC1` [PEG(2)-hRChgQ-SL-DOX(3'), PEG(2)-hArgChgGln-SerLeu-DOX (3')] ({Decanoyl(3,6,9-trioxa)}-[hArg][Chg]QSL-{Doxorubicin(3'-N)}) was tested. Which “Solubility remark in the cell kill column (INSOLUBLE / PS)” value ([1]; Table 4, DOX conjugates, abbreviation not defined) did it give?
A: INSOLUBLE

Q: For “N-[2-{2-(2-methoxyethoxy)ethoxy}acetyl]-Ser-Ser-Ser-Chg-Gln-Ser-Leu-Dox [PEG(2)-SSSChgQ-SL-DOX(3')]”, which “Time to 50% Substrate Cleavage by York PSA” value (free PSA; buffer 50 mM Tris pH7.4, 140 mM NaCl, conjugate:PSA 100 to 1) is on record?
A: 60 min

Q: And the EC50 ([1]; LNCaP cells, 72 h (3 days) incubation, Alamar Blue, read-out: LNCaP Cell Kill in 72 HRS, {48 HRS} EC 50)?
A: 10 µM

Q: And the EC50 (DuPRO cells)?
A: > 100 µM
